A short description of experiment [1]: HEp-2 cell cytotoxicity, dose response, cytotoxicity control for RSV inhibitor project, HTS (AID 2410). Type of experiment: functional. To be noted: human respiratory syncytial virus.
The nature of experiment [2]: A Cell Based Secondary Assay To Explore Cytotoxicity of Compounds that Sensitize Mycobacterium Tuberculosis to Beta-Lactam Antibiotics. The class given is functional.
For the next experiment, the target named is T1, Estrogen receptor (Homo sapiens, UniProt P03372).
T1 sequence (P03372 whole entry): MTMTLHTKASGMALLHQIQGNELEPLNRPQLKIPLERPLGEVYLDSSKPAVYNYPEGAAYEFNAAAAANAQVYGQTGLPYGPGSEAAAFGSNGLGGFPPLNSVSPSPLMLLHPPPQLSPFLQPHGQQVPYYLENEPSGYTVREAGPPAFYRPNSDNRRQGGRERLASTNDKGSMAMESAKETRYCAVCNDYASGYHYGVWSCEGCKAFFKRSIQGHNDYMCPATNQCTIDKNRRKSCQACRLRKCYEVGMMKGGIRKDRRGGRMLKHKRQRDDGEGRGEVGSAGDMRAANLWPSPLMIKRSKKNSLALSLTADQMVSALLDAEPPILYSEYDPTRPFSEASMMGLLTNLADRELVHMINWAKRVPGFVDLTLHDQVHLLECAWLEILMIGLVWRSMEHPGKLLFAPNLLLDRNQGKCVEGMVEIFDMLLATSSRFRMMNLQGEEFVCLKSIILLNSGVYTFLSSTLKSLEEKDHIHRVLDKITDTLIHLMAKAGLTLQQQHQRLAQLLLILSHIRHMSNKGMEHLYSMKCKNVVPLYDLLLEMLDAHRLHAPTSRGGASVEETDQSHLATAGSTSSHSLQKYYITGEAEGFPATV

The nature of experiment [3]: growth suppression of beta-catenin-knockout colon cells, dose response, cell-based, HCT116, human colon tumor (AID 1045).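 Note: HCT116 colon tumor cells with beta catenin knocked out; cells exposed to compound for 60 hours.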 The class given is functional.
Experiment [4] in a line: growth suppression of PTEN-null colon cells, dose response, cell-based, HCT116 PTEN knockout (AID 1047).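 Note: HCT116 colon tumor cells with PTEN knocked out; cells exposed to compound for 60 hours before readout; potency for loss of cell viability measured by luminescence.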 Type of experiment: functional.
Another experiment addresses T2, Caspase-3 (Homo sapiens, UniProt P42574).
T2 sequence (P42574 whole entry): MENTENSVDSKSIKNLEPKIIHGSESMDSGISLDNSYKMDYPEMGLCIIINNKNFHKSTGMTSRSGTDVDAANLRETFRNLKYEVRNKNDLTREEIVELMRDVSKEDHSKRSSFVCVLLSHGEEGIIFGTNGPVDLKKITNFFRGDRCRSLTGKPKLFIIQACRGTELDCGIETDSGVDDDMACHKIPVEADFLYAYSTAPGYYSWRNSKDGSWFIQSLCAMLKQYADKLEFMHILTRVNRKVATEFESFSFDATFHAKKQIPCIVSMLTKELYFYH
The class given is functional.

In experiment [5] the target is T3, Sentrin-specific protease 7 (Homo sapiens, UniProt Q9BQF6).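 Note: Luminescence-based dose-response confirmation of ultra-high-throughput screening hits, measuring inhibition of SENP7.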
T3 sequence (Q9BQF6 whole entry): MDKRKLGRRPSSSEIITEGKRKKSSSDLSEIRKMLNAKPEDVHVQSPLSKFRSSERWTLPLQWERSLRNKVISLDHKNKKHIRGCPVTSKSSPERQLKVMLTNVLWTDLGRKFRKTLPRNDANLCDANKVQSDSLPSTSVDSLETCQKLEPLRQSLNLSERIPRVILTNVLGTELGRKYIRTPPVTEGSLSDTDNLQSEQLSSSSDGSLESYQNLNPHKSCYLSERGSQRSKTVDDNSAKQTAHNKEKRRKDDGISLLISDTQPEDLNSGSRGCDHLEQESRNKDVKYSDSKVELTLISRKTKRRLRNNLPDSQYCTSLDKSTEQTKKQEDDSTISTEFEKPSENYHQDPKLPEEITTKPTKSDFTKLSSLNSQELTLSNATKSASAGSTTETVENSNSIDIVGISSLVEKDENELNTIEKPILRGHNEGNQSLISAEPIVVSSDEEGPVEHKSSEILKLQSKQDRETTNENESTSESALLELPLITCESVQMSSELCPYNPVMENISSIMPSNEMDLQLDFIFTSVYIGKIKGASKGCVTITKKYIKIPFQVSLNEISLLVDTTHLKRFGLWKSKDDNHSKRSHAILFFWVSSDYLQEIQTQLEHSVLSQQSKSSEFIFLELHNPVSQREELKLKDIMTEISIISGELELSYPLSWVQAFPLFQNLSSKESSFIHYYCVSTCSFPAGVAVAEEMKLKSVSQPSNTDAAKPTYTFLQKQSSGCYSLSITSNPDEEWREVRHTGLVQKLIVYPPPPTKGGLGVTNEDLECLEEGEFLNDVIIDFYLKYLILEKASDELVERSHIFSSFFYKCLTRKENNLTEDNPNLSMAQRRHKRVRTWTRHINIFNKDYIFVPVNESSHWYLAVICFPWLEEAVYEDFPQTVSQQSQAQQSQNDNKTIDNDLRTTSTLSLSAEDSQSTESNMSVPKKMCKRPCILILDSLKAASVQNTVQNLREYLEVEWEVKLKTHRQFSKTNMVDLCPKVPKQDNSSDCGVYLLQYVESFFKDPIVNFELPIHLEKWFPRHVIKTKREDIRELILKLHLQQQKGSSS
The class given is functional.

The nature of experiment [6]: Luminescence Cell-Based Dose Confirmation HTS to Identify Activators of 5'UTR Stem-Loop Driven Alpha-Synuclein mRNA Translation in H4 Neuroglioblastoma Cells. [Related pubchem assays: 1829 (Project Summary), 1814 (Primary HTS)]. The class given is functional.
A further experiment has as its target Estrogen receptor beta (Homo sapiens, UniProt Q92731).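 Note: recombinant ER-beta bound to coactivator SRC1 peptide in presence of estradiol agonist; inhibitors block coactivator peptide binding and lower the FRET signal.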
Experiment [7] deals with T4, Sentrin-specific protease 6 (Homo sapiens, UniProt Q9GZR1).
T4 sequence (Q9GZR1 whole entry): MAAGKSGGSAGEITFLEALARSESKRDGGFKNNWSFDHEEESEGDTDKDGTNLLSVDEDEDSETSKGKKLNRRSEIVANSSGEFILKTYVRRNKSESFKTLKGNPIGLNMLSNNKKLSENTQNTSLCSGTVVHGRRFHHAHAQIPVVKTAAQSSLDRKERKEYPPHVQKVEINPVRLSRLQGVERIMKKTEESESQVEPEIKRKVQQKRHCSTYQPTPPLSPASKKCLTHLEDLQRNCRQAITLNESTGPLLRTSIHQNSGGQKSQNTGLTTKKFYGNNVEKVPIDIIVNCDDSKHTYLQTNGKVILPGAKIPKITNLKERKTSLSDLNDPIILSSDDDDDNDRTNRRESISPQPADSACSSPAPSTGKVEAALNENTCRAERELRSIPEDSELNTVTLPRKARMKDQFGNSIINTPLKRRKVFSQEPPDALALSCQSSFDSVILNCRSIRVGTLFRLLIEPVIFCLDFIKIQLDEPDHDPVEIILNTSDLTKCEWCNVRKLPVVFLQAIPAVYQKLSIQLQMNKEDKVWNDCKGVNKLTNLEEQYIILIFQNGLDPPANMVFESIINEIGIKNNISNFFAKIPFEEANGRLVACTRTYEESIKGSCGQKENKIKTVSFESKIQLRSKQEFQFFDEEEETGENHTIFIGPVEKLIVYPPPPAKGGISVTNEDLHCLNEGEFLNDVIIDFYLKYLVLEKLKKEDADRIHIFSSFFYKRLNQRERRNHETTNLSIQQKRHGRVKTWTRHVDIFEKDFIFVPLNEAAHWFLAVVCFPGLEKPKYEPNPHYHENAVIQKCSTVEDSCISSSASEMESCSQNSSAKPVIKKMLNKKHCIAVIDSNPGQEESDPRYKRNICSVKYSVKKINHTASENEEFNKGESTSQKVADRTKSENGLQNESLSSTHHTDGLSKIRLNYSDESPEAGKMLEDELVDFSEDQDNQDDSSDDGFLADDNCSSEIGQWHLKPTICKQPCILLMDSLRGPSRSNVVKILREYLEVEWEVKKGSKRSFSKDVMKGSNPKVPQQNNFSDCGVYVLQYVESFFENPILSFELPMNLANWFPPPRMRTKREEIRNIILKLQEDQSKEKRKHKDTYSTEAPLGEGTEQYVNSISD
Type of experiment: functional.

Experiment [8] concerns the target T5, Sentrin-specific protease 8 (Homo sapiens, UniProt Q96LD8).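 Note: luminescence read-out of SENP8 inhibition, dose-response confirmation following an ultra-high-throughput screen.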
T5 sequence (Q96LD8 whole entry): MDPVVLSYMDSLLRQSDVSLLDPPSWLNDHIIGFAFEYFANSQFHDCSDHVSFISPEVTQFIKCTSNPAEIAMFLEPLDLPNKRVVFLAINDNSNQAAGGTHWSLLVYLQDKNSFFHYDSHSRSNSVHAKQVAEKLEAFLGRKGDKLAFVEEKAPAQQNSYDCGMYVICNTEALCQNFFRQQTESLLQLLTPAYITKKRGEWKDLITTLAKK
The class given is functional.

A further experiment deals with H4. Description: Luminescence Cell-Based Dose Response HTS to Identify Activators of 5'UTR Stem-Loop Driven Prion Protein mRNA Translation in H4 Neuroglioblastoma Cells. [Related pubchem assays: 1829 (Project Summary), 1814 (Primary HTS)]. Type of experiment: functional. As to conditions: Homo sapiens.
The nature of experiment [9]: Luminescence Cell-Based Dose Response HTS to Identify Activators of Luciferase Translation or Activity in H4 […] Cells. [Related pubchem assays: 1829 (Project Summary), 1814 (Primary HTS)]. Type of experiment: functional.

Activity calls are given as the source filed them. A value given as a limit tells only on which side of the number the result lay.

Sequence of Estrogen receptor beta (Q92731 whole entry): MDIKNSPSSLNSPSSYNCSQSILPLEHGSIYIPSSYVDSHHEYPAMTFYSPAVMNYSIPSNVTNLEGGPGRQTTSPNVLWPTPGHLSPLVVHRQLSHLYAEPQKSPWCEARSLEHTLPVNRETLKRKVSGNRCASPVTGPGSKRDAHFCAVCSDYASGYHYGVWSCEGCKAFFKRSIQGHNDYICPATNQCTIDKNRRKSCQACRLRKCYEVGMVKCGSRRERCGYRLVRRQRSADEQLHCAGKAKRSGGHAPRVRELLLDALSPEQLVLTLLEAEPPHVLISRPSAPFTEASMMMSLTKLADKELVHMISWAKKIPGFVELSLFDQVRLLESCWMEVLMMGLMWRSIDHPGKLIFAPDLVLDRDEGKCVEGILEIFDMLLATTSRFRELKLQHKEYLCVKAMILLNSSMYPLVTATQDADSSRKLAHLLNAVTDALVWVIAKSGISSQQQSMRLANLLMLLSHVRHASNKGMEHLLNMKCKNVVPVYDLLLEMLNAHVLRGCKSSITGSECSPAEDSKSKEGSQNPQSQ

Broadly, the CC50 is the concentration at which the toxic effect on the cells reaches its halfway point. As to `COC(=O)C1=C(C)NC(=O)/C1=C\c1cc(C)n(-c2c(C)cccc2C)c1C`, the CC50 in experiment [1] is 1.88 µM (active); in [2] it was > 40 µM (active).

Regarding `CCC(C)NCCOCCOc1ccc(Cl)c2ccccc12` (stereo not drawn), the CC50 in experiment [2] was 18.4 µM (active).

Broadly, the IC50 is the midpoint of a concentration-inhibition curve. In the case of `COC(=O)c1ccc2c(c1)N(Cc1nc(-c3cccc(C)c3)oc1C)C(=O)C1CCCN21` (stereo not drawn), the IC50 on Estrogen receptor is reported as > 50 µM (not active).

The term EC50 denotes the midpoint of the concentration-response curve. For `Cc1ccsc1/C=N/Nc1ncc(Cl)cc1Cl`, in experiment [2], the half-maximal cytotoxic concentration (CC50) is 32.4 µM (active). Further, the EC50 is 15.5 µM (active) in [3] and 12.9 µM (active) in [4].

On to `c1ccc(-c2nc(C3CCCCC3)no2)cc1`, for which the IC50 at Caspase-3 was 57.1 µM (active); in [5] it was 23.2 µM (active); against Estrogen receptor beta, > 50 µM (not active); in [7], 66.3 µM (active); in experiment [8] it was > 100 µM (inactive). In addition, the EC50 in [6] was 32.8 µM (active); with H4, > 120 µM (not active); in experiment [9], 0.896 µM (active).

For the compound `Cc1nc2sc3c(c2c2nnc(SCC(=O)NCc4ccco4)n12)CCCC3`, the CC50 in [2] is 31.8 µM (active).

As for `Cc1cc(C)n2nc(SCc3cc(=O)oc4cc(O)ccc34)nc2n1`, the IC50 on Estrogen receptor was 10.1 µM (active).

Consider `CC(=O)N(C(C)=O)c1c(C#N)c(C)n(-c2ccccc2)c1C(=O)c1ccccc1`, for which the IC50 on Estrogen receptor is recorded as > 50 µM (not active).

Source of the values: ChEMBL document CHEMBL1201862, “PubChem BioAssay data set” (2004).
